In ChEMBL document CHEMBL3885881, “DrugMatrix”:

Species on record: Rattus norvegicus
Assay: DrugMatrix - Regimen: Daily Repeat
Assay type: toxicity, organism-based, Sprague-Dawley
Design: regimen Daily Repeat, gender Male, age 6-8 weeks
Details: in vivo, po, route oral GAVAGE, […]; for ABSOLUTE BASOPHIL / ABSOLUTE EOSINOPHIL / ABSOLUTE LYMPHOCYTE / ABSOLUTE MONOCYTE / ABSOLUTE SEGMENTED NEUTROPHIL / BASOPHIL / EOSINOPHIL / ERYTHROCYTE COUNT / HEMATOCRIT / HEMOGLOBIN / LEUKOCYTE COUNT / LYMPHOCYTE / MEAN CORPUSCULAR HEMOGLOBIN / MEAN CORPUSCULAR HEMOGLOBIN CONCENTRATION / MEAN CORPUSCULAR VOLUME / MONOCYTE / NEUTROPHIL / NUCLEATED RED BLOOD CELLS / PLATELET COUNT: tissue Blood; for ALANINE AMINOTRANSFERASE / ALBUMIN / ALKALINE PHOSPHATASE / ASPARTATE AMINOTRANSFERASE / BLOOD UREA NITROGEN / CARBON DIOXIDE / CHLORIDE / CHOLESTEROL / CREATINE PHOSPHOKINASE / CREATININE / GLUCOSE / LACTATE DEHYDROGENASE / LIPASE / PHOSPHORUS / POTASSIUM / SODIUM / TOTAL BILIRUBIN / TOTAL PROTEIN / URIC ACID: tissue Plasma
[1] = 0 mg/kg, 72 h, dose level Control, time 3 day
[2] = 0 mg/kg, 120 h, dose level Control, time 5 day
[3] = 3 mg/kg, 72 h, dose level Low, time 3 day

## CS(=O)(=O)c1ccc(C2=C(c3ccccc3)C(=O)OC2)cc1 [ROFECOXIB]
[1]
  ABSOLUTE BASOPHIL: 0 CELLS/uL
  ABSOLUTE EOSINOPHIL: 0 CELLS/uL
  ABSOLUTE LYMPHOCYTE: 6275.67 CELLS/uL
  ABSOLUTE MONOCYTE: 40.67 CELLS/uL
  ABSOLUTE SEGMENTED NEUTROPHIL: 633.67 CELLS/uL
  BASOPHIL: 0%
  EOSINOPHIL: 0%
  ERYTHROCYTE COUNT: 5.2 x10E6/uL
  HEMATOCRIT: 32.78%
  HEMOGLOBIN: 12.98 G/DL
  LEUKOCYTE COUNT: 6.95 x10E3/uL
  LYMPHOCYTE: 90.17%
  MEAN CORPUSCULAR HEMOGLOBIN: 24.97 pg
  MEAN CORPUSCULAR HEMOGLOBIN CONCENTRATION: 39.62 G/DL
  MEAN CORPUSCULAR VOLUME: 63.03 fL
  MONOCYTE: 0.67%
  NEUTROPHIL: 9.17%
  NUCLEATED RED BLOOD CELLS: 0 /100WBC
  PLATELET COUNT: 1082.83 x10E3/uL
  ALANINE AMINOTRANSFERASE: 69.67 u/L
  ALBUMIN: 4.15 G/DL
  ALKALINE PHOSPHATASE: 430.5 u/L
  ASPARTATE AMINOTRANSFERASE: 90.83 u/L
  BLOOD UREA NITROGEN: 13 mg/dL
  CARBON DIOXIDE: 33 mmol/L
  CHLORIDE: 99.17 MEQ/L
  CHOLESTEROL: 70.5 mg/dL
  CREATINE PHOSPHOKINASE: 253.33 u/L
  CREATININE: 0.13 mg/dL
  GLUCOSE: 157.17 mg/dL
  LACTATE DEHYDROGENASE: 85 u/L
  LIPASE: 10 u/L
  PHOSPHORUS: 10.2 mg/dL
  POTASSIUM: 5.78 MEQ/L
  SODIUM: 144.12 MEQ/L
  TOTAL BILIRUBIN: 0.2 mg/dL
  TOTAL PROTEIN: 5.8 G/DL
  URIC ACID: 0.8 mg/dL
[2]
  ABSOLUTE BASOPHIL: 0 CELLS/uL
  ABSOLUTE EOSINOPHIL: 0 CELLS/uL
  ABSOLUTE LYMPHOCYTE: 10431 CELLS/uL
  ABSOLUTE MONOCYTE: 90.5 CELLS/uL
  ABSOLUTE SEGMENTED NEUTROPHIL: 1111.83 CELLS/uL
  BASOPHIL: 0%
  EOSINOPHIL: 0%
  ERYTHROCYTE COUNT: 5.51 x10E6/uL
  HEMATOCRIT: 34.67%
  HEMOGLOBIN: 13.5 G/DL
  LEUKOCYTE COUNT: 11.63 x10E3/uL
  LYMPHOCYTE: 89.67%
  MEAN CORPUSCULAR HEMOGLOBIN: 24.5 pg
  MEAN CORPUSCULAR HEMOGLOBIN CONCENTRATION: 38.95 G/DL
  MEAN CORPUSCULAR VOLUME: 62.87 fL
  MONOCYTE: 0.67%
  NEUTROPHIL: 9.67%
  NUCLEATED RED BLOOD CELLS: 0 /100WBC
  PLATELET COUNT: 1052.67 x10E3/uL
  ALANINE AMINOTRANSFERASE: 54.67 u/L
  ALBUMIN: 4.15 G/DL
  ALKALINE PHOSPHATASE: 359.83 u/L
  ASPARTATE AMINOTRANSFERASE: 83 u/L
  BLOOD UREA NITROGEN: 13.5 mg/dL
  CARBON DIOXIDE: 27.17 mmol/L
  CHLORIDE: 98.5 MEQ/L
  CHOLESTEROL: 66.83 mg/dL
  CREATINE PHOSPHOKINASE: 256.17 u/L
  CREATININE: 0.19 mg/dL
  GLUCOSE: 171.33 mg/dL
  LACTATE DEHYDROGENASE: 91.5 u/L
  LIPASE: 10.5 u/L
  PHOSPHORUS: 8.72 mg/dL
  POTASSIUM: 5.34 MEQ/L
  SODIUM: 142.53 MEQ/L
  TOTAL BILIRUBIN: 0.2 mg/dL
  TOTAL PROTEIN: 6.05 G/DL
  URIC ACID: 0.6 mg/dL
[3]
  ABSOLUTE BASOPHIL: 0 CELLS/uL
  ABSOLUTE EOSINOPHIL: 85.33 CELLS/uL
  ABSOLUTE LYMPHOCYTE: 8896 CELLS/uL
  ABSOLUTE MONOCYTE: 157.33 CELLS/uL
  ABSOLUTE SEGMENTED NEUTROPHIL: 594.67 CELLS/uL
  BASOPHIL: 0%
  EOSINOPHIL: 0.67%
  ERYTHROCYTE COUNT: 4.87 x10E6/uL
  HEMATOCRIT: 31.33%
  HEMOGLOBIN: 12.37 G/DL
  LEUKOCYTE COUNT: 9.73 x10E3/uL
  LYMPHOCYTE: 92%
  MEAN CORPUSCULAR HEMOGLOBIN: 25.37 pg
  MEAN CORPUSCULAR HEMOGLOBIN CONCENTRATION: 39.47 G/DL
  MEAN CORPUSCULAR VOLUME: 64.27 fL
  MONOCYTE: 1.33%
  NEUTROPHIL: 6%
  NUCLEATED RED BLOOD CELLS: 0 /100WBC
  PLATELET COUNT: 1073 x10E3/uL
  ALANINE AMINOTRANSFERASE: 72.67 u/L
  ALBUMIN: 3.97 G/DL
  ALKALINE PHOSPHATASE: 379.67 u/L
  ASPARTATE AMINOTRANSFERASE: 91.33 u/L
  BLOOD UREA NITROGEN: 11.33 mg/dL
  CARBON DIOXIDE: 30.33 mmol/L
  CHLORIDE: 103.33 MEQ/L
  CHOLESTEROL: 80.33 mg/dL
  CREATINE PHOSPHOKINASE: 195.67 u/L
  CREATININE: 0.12 mg/dL
  GLUCOSE: 156 mg/dL
  LACTATE DEHYDROGENASE: 80 u/L
  LIPASE: 9.67 u/L
  PHOSPHORUS: 11.1 mg/dL
  POTASSIUM: 6.21 MEQ/L
  SODIUM: 149.03 MEQ/L
  TOTAL BILIRUBIN: 0.1 mg/dL
  TOTAL PROTEIN: 5.43 G/DL
  URIC ACID: 0.7 mg/dL
